Target: T1, hFXR (Homo sapiens, UniProt Q96RI1)
T1 construct: expressed in transfected cells; host or cells: CV-1 cells
T1 sequence (Q96RI1 1-486): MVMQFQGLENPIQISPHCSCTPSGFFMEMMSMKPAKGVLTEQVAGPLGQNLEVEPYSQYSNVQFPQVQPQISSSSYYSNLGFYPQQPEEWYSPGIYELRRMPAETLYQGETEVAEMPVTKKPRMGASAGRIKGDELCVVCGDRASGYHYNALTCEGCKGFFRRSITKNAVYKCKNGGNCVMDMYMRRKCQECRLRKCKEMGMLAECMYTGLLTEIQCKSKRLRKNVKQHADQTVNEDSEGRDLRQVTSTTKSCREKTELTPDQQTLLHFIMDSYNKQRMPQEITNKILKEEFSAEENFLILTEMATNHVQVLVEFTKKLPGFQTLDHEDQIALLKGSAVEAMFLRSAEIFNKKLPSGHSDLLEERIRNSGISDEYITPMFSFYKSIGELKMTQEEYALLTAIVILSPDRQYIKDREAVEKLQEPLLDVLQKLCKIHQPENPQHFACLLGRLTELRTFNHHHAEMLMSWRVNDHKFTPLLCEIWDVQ
T1 sequence (P19793 1-462 partner): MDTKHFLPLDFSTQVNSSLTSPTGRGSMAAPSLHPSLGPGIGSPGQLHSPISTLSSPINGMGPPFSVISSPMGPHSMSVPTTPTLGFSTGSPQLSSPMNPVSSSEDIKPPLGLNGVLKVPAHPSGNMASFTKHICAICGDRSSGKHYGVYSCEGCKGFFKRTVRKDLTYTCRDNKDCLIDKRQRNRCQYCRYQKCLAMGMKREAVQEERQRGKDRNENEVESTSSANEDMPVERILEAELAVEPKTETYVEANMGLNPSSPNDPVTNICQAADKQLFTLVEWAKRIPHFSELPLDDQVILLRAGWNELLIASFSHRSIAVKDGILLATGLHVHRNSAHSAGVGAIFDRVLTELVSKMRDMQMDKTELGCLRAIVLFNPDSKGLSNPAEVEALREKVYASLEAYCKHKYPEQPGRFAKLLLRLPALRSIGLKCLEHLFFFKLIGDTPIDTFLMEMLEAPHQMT
Assay: In Vitro FXR Assay (TK)
Format: cell-based
Conditions: CV-1 cells transfected with hFXR, hRXR, TK-ECRE-luc and pCMX-YFP; compounds incubated 18 hrs; luminescence
Description: CV-1 cells were seeded at a density of 2,000,000 cells in a T175 flask with DMEM+10% charcoal double-stripped FBS and incubated at 37° C. in 5% CO2 for 18 h (O/N).
After 18 h of incubation, the medium in the T175 flask was changed with fresh DMEM+10% charcoal super-stripped serum. In a polypropylene tube, 2500 μL OptiMEM (Life Technologies, Cat #31985-062) was combined with expression plasmids for hFXR, hRXR, TK-ECRE-luc and pCMX-YFP. The tube was then briefly vortexed and incubated at room temperature for 5 minutes. Transfection reagent (X-tremeGENE HP from Roche, Cat #06 366 236 001) was added to the OptiMEM/plasmid mixture vortexed and incubated at room temperature for 20 minutes. Following incubation, the transfection reagent/DNA mixture complex was added to cells in the T175 flask and the cells were incubated at 37° C. in 5% CO2 for 18 h (O/N).
Compounds were serially diluted in DMSO and added to transfected CV-1 cells. The cells were then incubated for 18 hrs. The next day cells were lysed and examined for luminescence.

## COc1ccc(-c2ccc(CN(C(=O)CC(C)(C)C)c3nccc4cc(N5CCC5)ccc34)cc2)cc1C [Compound 6.04, N-(6-(Azetidin-1-yl)isoquinolin-1-yl)-N-((4′-methoxy-3′-methyl-[1,1′-biphenyl]-4-yl)methyl)-3,3-dimethylbutanamide]
  EC50: ≤ 1000 nM

## COc1ccc(-c2ccc(CN(C(=O)CC(C)(C)C)c3nccc4cc(N5CCN(C)CC5)ccc34)cc2)cc1C [Compound 6.05, N-((4′-Methoxy-3′-methyl-[1,1′-biphenyl]-4-yl)methyl)-3,3-dimethyl-N-(6-(4-methylpiperazin-1-yl)isoquinolin-1-yl)butanamide]
  EC50: 1000 to 10000 nM

## COc1ccc(-c2ccc(CN(C(=O)CC(C)(C)C)c3nccc4cc(N5CCOCC5)ccc34)cc2)cc1C [Compound 6.06, N-((4′-Methoxy-3′-methyl-[1,1′-biphenyl]-4-yl)methyl)-3,3-dimethyl-N-(6-morpholinoisoquinolin-1-yl)butanamide]
  EC50: ≤ 1000 nM

## COc1ccc(-c2ccc(CN(C(=O)CC(C)(C)C)c3nccc4cc(N5CCCCC5)ccc34)cc2)cc1C [Compound 6.07, N-((4′-Methoxy-3′-methyl-[1,1′-biphenyl]-4-yl)methyl)-3,3-dimethyl-N-(6-(piperidin-1-yl)isoquinolin-1-yl)butanamide]
  EC50: ≤ 1000 nM

## COc1ccc(-c2ccc(CN(C(=O)CC(C)(C)C)c3nccc4cc(N5CCCC5)ccc34)cc2)cc1C [Compound 6.08, N-((4′-Methoxy-3′-methyl-[1,1′-biphenyl]-4-yl)methyl)-3,3-dimethyl-N-(6-(pyrrolidin-1-yl)isoquinolin-1-yl)butanamide]
  EC50: ≤ 1000 nM

## COc1ccc(-c2ccc(CN(C(=O)CC(C)(C)C)c3nccc4cc(N5CCNCC5)ccc34)cc2)cc1C [Compound 6.09, N-((4′-Methoxy-3′-methyl-[1,1′-biphenyl]-4-yl)methyl)-3,3-dimethyl-N-(6-(piperazin-1-yl)isoquinolin-1-yl)butanamide]
  EC50: 1000 to 10000 nM

## CNc1ccc2c(N(Cc3ccc(-c4ccc(OC)c(C)c4)cc3)C(=O)CC(C)(C)C)nccc2c1 [Compound 6.11, N-((4′-Methoxy-3′-methyl-[1,1′-biphenyl]-4-yl)methyl)-3,3-dimethyl-N-(6-(methylamino)isoquinolin-1-yl)butanamide]
  EC50: ≤ 1000 nM

## COc1ccc(-c2ccc(CN(C(=O)CC(C)(C)C)c3nccc4cc(N5CCC(F)C5)ccc34)cc2)cc1C (stereo not drawn) [Compound 6.12, N-(6-(3-Fluoropyrrolidin-1-yl)isoquinolin-1-yl)-N-((4′-methoxy-3′-methyl-[1,1′-biphenyl]-4-yl)methyl)-3,3-dimethylbutanamide]
  EC50: ≤ 1000 nM

## COc1ccc(-c2ccc(CN(C(=O)CC(C)(C)C)c3nccc4cc(N5CCC(C#N)C5)ccc34)cc2)cc1C (stereo not drawn) [Compound 6.13, N-(6-(3-Cyanopyrrolidin-1-yl)isoquinolin-1-yl)-N-((4′-methoxy-3′-methyl-[1,1′-biphenyl]-4-yl)methyl)-3,3-dimethylbutanamide]
  EC50: ≤ 1000 nM

## COc1ccc(-c2ccc(CN(C(=O)CC(C)(C)C)c3nccc4cc(N5CCC(CCO)C5)ccc34)cc2)cc1C (stereo not drawn) [Compound 6.14, N-(6-(3-(2-Hydroxyethyl)pyrrolidin-1-yl)isoquinolin-1-yl)-N-((4′-methoxy-3′-methyl-[1,1′-biphenyl]-4-yl)methyl)-3,3-dimethylbutanamide]
  EC50: ≤ 1000 nM

## COc1ccc(-c2ccc(CN(C(=O)CC(C)(C)C)c3nccc4cc(N5CC(CO)C5)ccc34)cc2)cc1C [Compound 6.15, N-(6-(3-(Hydroxymethyl)azetidin-1-yl)isoquinolin-1-yl)-N-((4′-methoxy-3′-methyl-[1,1′-biphenyl]-4-yl)methyl)-3,3-dimethylbutanamide]
  EC50: ≤ 1000 nM

## COc1ccc(-c2ccc(CN(C(=O)CC(C)(C)C)c3nccc4cc(N5CCC(CO)C5)ccc34)cc2)cc1C (stereo not drawn) [Compound 6.16, N-(6-(3-(Hydroxymethyl)pyrrolidin-1-yl)isoquinolin-1-yl)-N-((4′-methoxy-3′-methyl-[1,1′-biphenyl]-4-yl)methyl)-3,3-dimethylbutanamide]
  EC50: ≤ 1000 nM

From patent publication US20200131132A1, “FARNESOID X RECEPTOR AGONISTS AND USES THEREOF” (Metacrine, Inc., priority 2017, published 2020)
